Laboratory results: patent publication US5556744A, “Methods and compositions for diagnosing and treating certain HIV infected patients” (The Trustees of the University of Pennsylvania, priority 1994, dated 1996)

System: maternal HIV+ sera (antibodies)
Assay: RIA / ELISA binding of maternal HIV+ sera to gp120 and gp41 peptides (Example 3)
Design: species or system human
Experimental: Radioimmunoassay (RIA) and enzyme-linked immunosorbent assay (ELISA) were performed by standard methodologies [E. Engvall, Meth. Immunol., 70:419-439 (1980); S. K. Pierce et al, J. Exp. Med., 144:1254-1262 (1976)]. Peptides were dissolved in 0.05M carbonate-bicarbonate buffer (pH 9.6) at a concentration of 10 μg/ml. Fifty μl (500 ng) of the peptides were immobilized in 96 well polyvinylchloride plates (Dynatech Laboratories, Inc.) overnight at 4° C. Plates were washed and non-specific sites were blocked with PBS containing 1% BSA overnight at 4° C.
Dilutions of HIV positive maternal sera were made in blocking buffer at dilutions of 1:50 and 1:500 and incubated in peptide coated plates overnight at 4° C. Plates were washed with PBS and incubated with 75,000 cpm of ^125 I-labelled goat anti-human IgG. The antibody was iodinated by a chloramine T method [W. V. Williams et al, Proc. Natl. Acad. Sci. USA, 85:6488-6492 (1988)]. Plates were washed, dried and counted in a gamma counter to measure specific binding. Normal human serum (i.e., HIV seronegative) was used as a control.
Alternatively, ELISA assays were performed in polystyrene plates (Dynatech Laboratories, Inc) in which 0.05% Tween 20 (Sigma Chemical Co.) was included in the washing, blocking and dilution buffers. The secondary antibody used was goat […] Ig conjugated to horseradish peroxidase (HRP) (Sigma Chemical Co). The substrate used for color development was 3,3',5,5' tetramethyl-benzidine dihydrochloride (TMB) (Sigma Chemical Co). Absorbance of samples was measured in a Dynatech MR5000 (Dynatech Laboratories, Inc.) plate reader and expressed as an optical density at wavelength of 450 nm (OD450).
The following key is used for the designation of specific binding of the maternal sera samples to the peptides: The minus sign, -, is equivalent to the specific OD450 or cpm of sera sample binding to peptide divided by the specific OD450 or cpm of NHS sample binding to peptide, which value is less than 2. The plus sign, +, is equivalent to the specific OD450 or cpm of sera sample binding to peptide divided by the specific OD450 or cpm of NHS sample binding to peptide, which value is between 2 to 3.
Specific binding is defined as the difference between the OD450 or cpm of sera to wells with peptide and the OD450 or cpm of sera to wells without peptide.
Comparisons of number of peptides which bound maternal serum samples were made between the transmission group and the nontransmission group. The data was analyzed using the unpaired student's test. For the determination of differences in the binding of specific peptides between transmission and non-transmission groups, the Spearman's rank-order correlation test was performed.

[1] = Serum No. 1, Non-Transmission Group
[2] = Serum No. 2, Non-Transmission Group
[3] = Serum No. 3, Non-Transmission Group
[4] = Serum No. 4, Transmission Group
[5] = Serum No. 5, Transmission Group
[6] = Serum No. 6, Non-Transmission Group
[7] = Serum No. 7, Non-Transmission Group
[8] = Serum No. 8, Non-Transmission Group
[9] = Serum No. 9, Non-Transmission Group
[10] = Serum No. 10, Transmission Group
[11] = Serum No. 11, Non-Transmission Group
[12] = Serum No. 12, Non-Transmission Group
[13] = Serum No. 13, Transmission Group
[14] = Serum No. 14, Transmission Group
[15] = Serum No. 15, Transmission Group
[16] = Serum No. 16, Non-Transmission Group
[17] = Serum No. 17, Non-Transmission Group
[18] = Serum No. 18, Non-Transmission Group
[19] = Serum No. 19, Transmission Group
[20] = Serum No. 20, Non-Transmission Group

Sequence | Binding of maternal HIV+ serum to peptide (sera/NHS ratio) [1] | Binding of maternal HIV+ serum to peptide (sera/NHS ratio) [2] | Binding of maternal HIV+ serum to peptide (sera/NHS ratio) [3] | Binding of maternal HIV+ serum to peptide (sera/NHS ratio) [4] | Binding of maternal HIV+ serum to peptide (sera/NHS ratio) [5] | Binding of maternal HIV+ serum to peptide (sera/NHS ratio) [6] | Binding of maternal HIV+ serum to peptide (sera/NHS ratio) [7] | Binding of maternal HIV+ serum to peptide (sera/NHS ratio) [8] | Binding of maternal HIV+ serum to peptide (sera/NHS ratio) [9] | Binding of maternal HIV+ serum to peptide (sera/NHS ratio) [10] | Binding of maternal HIV+ serum to peptide (sera/NHS ratio) [11] | Binding of maternal HIV+ serum to peptide (sera/NHS ratio) [12] | Binding of maternal HIV+ serum to peptide (sera/NHS ratio) [13] | Binding of maternal HIV+ serum to peptide (sera/NHS ratio) [14] | Binding of maternal HIV+ serum to peptide (sera/NHS ratio) [15] | Binding of maternal HIV+ serum to peptide (sera/NHS ratio) [16] | Binding of maternal HIV+ serum to peptide (sera/NHS ratio) [17] | Binding of maternal HIV+ serum to peptide (sera/NHS ratio) [18] | Binding of maternal HIV+ serum to peptide (sera/NHS ratio) [19] | Binding of maternal HIV+ serum to peptide (sera/NHS ratio) [20]
VTRIVELLGRRGWEALKYWW [Peptide 57] | - (specific OD450 or cpm of sera sample binding to peptide divided by the specific OD450 or cpm of NHS sample binding to peptide, which value is less than 2) | - (specific OD450 or cpm of sera sample binding to peptide divided by the specific OD450 or cpm of NHS sample binding to peptide, which value is less than 2) | - (specific OD450 or cpm of sera sample binding to peptide divided by the specific OD450 or cpm of NHS sample binding to peptide, which value is less than 2) | - (specific OD450 or cpm of sera sample binding to peptide divided by the specific OD450 or cpm of NHS sample binding to peptide, which value is less than 2) | - (specific OD450 or cpm of sera sample binding to peptide divided by the specific OD450 or cpm of NHS sample binding to peptide, which value is less than 2) | - (specific OD450 or cpm of sera sample binding to peptide divided by the specific OD450 or cpm of NHS sample binding to peptide, which value is less than 2) | - (specific OD450 or cpm of sera sample binding to peptide divided by the specific OD450 or cpm of NHS sample binding to peptide, which value is less than 2) | ++ (which value is greater than 3) | - (specific OD450 or cpm of sera sample binding to peptide divided by the specific OD450 or cpm of NHS sample binding to peptide, which value is less than 2) | - (specific OD450 or cpm of sera sample binding to peptide divided by the specific OD450 or cpm of NHS sample binding to peptide, which value is less than 2) | - (specific OD450 or cpm of sera sample binding to peptide divided by the specific OD450 or cpm of NHS sample binding to peptide, which value is less than 2) | - (specific OD450 or cpm of sera sample binding to peptide divided by the specific OD450 or cpm of NHS sample binding to peptide, which value is less than 2) | - (specific OD450 or cpm of sera sample binding to peptide divided by the specific OD450 or cpm of NHS sample binding to peptide, which value is less than 2) | - (specific OD450 or cpm of sera sample binding to peptide divided by the specific OD450 or cpm of NHS sample binding to peptide, which value is less than 2) | - (specific OD450 or cpm of sera sample binding to peptide divided by the specific OD450 or cpm of NHS sample binding to peptide, which value is less than 2) | - (specific OD450 or cpm of sera sample binding to peptide divided by the specific OD450 or cpm of NHS sample binding to peptide, which value is less than 2) | - (specific OD450 or cpm of sera sample binding to peptide divided by the specific OD450 or cpm of NHS sample binding to peptide, which value is less than 2) | - (specific OD450 or cpm of sera sample binding to peptide divided by the specific OD450 or cpm of NHS sample binding to peptide, which value is less than 2) | - (specific OD450 or cpm of sera sample binding to peptide divided by the specific OD450 or cpm of NHS sample binding to peptide, which value is less than 2) | + (which value is between 2 to 3)
KLICTTQVPWNASWS [Peptide 123] | + (which value is between 2 to 3) | - (specific OD450 or cpm of sera sample binding to peptide divided by the specific OD450 or cpm of NHS sample binding to peptide, which value is less than 2) | - (specific OD450 or cpm of sera sample binding to peptide divided by the specific OD450 or cpm of NHS sample binding to peptide, which value is less than 2) | - (specific OD450 or cpm of sera sample binding to peptide divided by the specific OD450 or cpm of NHS sample binding to peptide, which value is less than 2) | - (specific OD450 or cpm of sera sample binding to peptide divided by the specific OD450 or cpm of NHS sample binding to peptide, which value is less than 2) | - (specific OD450 or cpm of sera sample binding to peptide divided by the specific OD450 or cpm of NHS sample binding to peptide, which value is less than 2) | - (specific OD450 or cpm of sera sample binding to peptide divided by the specific OD450 or cpm of NHS sample binding to peptide, which value is less than 2) | - (specific OD450 or cpm of sera sample binding to peptide divided by the specific OD450 or cpm of NHS sample binding to peptide, which value is less than 2) | - (specific OD450 or cpm of sera sample binding to peptide divided by the specific OD450 or cpm of NHS sample binding to peptide, which value is less than 2) | - (specific OD450 or cpm of sera sample binding to peptide divided by the specific OD450 or cpm of NHS sample binding to peptide, which value is less than 2) | - (specific OD450 or cpm of sera sample binding to peptide divided by the specific OD450 or cpm of NHS sample binding to peptide, which value is less than 2) | - (specific OD450 or cpm of sera sample binding to peptide divided by the specific OD450 or cpm of NHS sample binding to peptide, which value is less than 2) | - (specific OD450 or cpm of sera sample binding to peptide divided by the specific OD450 or cpm of NHS sample binding to peptide, which value is less than 2) | - (specific OD450 or cpm of sera sample binding to peptide divided by the specific OD450 or cpm of NHS sample binding to peptide, which value is less than 2) | - (specific OD450 or cpm of sera sample binding to peptide divided by the specific OD450 or cpm of NHS sample binding to peptide, which value is less than 2) | - (specific OD450 or cpm of sera sample binding to peptide divided by the specific OD450 or cpm of NHS sample binding to peptide, which value is less than 2) | - (specific OD450 or cpm of sera sample binding to peptide divided by the specific OD450 or cpm of NHS sample binding to peptide, which value is less than 2) | - (specific OD450 or cpm of sera sample binding to peptide divided by the specific OD450 or cpm of NHS sample binding to peptide, which value is less than 2) | - (specific OD450 or cpm of sera sample binding to peptide divided by the specific OD450 or cpm of NHS sample binding to peptide, which value is less than 2) | - (specific OD450 or cpm of sera sample binding to peptide divided by the specific OD450 or cpm of NHS sample binding to peptide, which value is less than 2)
